Measured values as given in patent US9434763B2, “Derivatives of pyridinone as inhibitors for tissue transglutaminase” (ZEDIRA GMBH, priority 2012, dated 2016).

Molecular target: T1, His tagged recombinant human tissue transglutaminase (His6-rh-TG2) (Homo sapiens, UniProt P21980)
T1 construct: purchased Zedira T002
T1 sequence (P21980 1-687): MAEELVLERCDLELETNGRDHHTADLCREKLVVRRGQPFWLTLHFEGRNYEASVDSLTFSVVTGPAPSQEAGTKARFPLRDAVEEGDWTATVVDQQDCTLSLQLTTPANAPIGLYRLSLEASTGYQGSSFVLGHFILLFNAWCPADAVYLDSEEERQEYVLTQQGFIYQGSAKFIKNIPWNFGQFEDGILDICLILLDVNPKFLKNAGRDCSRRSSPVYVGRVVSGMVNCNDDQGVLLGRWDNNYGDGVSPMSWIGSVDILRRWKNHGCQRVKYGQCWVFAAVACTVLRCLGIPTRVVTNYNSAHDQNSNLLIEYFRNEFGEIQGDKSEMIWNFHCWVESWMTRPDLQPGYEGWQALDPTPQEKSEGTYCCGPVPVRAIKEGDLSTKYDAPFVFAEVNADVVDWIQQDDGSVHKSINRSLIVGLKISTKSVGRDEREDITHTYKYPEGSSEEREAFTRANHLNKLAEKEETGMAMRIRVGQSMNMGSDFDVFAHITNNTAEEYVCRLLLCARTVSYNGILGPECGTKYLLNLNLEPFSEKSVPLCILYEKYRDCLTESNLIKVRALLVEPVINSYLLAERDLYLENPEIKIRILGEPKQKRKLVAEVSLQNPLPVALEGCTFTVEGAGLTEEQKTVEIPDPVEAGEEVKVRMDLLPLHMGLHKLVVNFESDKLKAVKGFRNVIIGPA
Experiment: Inactivation of human tissue transglutaminase, fluorescence assay with Abz-APE(CAD-DNP)QEA-OH
Assay type: biochemical
Conditions: substrate Abz-APE(CAD-DNP)QEA-OH, 37° C., pH=7.5
Description: General Method for Inactivation of Human Tissue Transglutaminase
250 μg lyophilized His tagged recombinant human tissue transglutaminase (His6-rh-TG2, Zedira product T002) are reconstituted by adding 150 μl water (resulting buffer 50 mM NaH2PO4, 150 mM NaCl, pH=8.0).
A 10 mM inhibitor stock solution in DMSO is prepared and is diluted with buffer (50 mM Tris-HCl, 10 mM CaCl2, 5 mM DTT, pH=7.5) each to the twentyfold of the concentration desired in the preparation (but at least 1/50 dilution resulting in a 2% DMSO concentration).
900 μl of an assay-solution consisting of 55.56 mM Tris, 11.11 mM CaCl2, 0.11% PEG8000, 5.56 mM DTT, 5.56 mM glycine methyl ester and 50 μM Abz-APE(CAD-DNP)QEA-OH, (Zedira product A102; patent No.: EP 1781807B1), pH=7.5 are added to a cuvette and heated in a measuring cell of a spectrophotometer to 37° C. 50 μl of the particular inhibitor solution are added to this solution (resulting in a concentration of less than 0.2% DMSO in the mixture).
7 μl of the transglutaminase solution reconstituted above are diluted with 51 μl buffer (50 mM Tris, 100 mM NaCl, 5 mM DTT, pH=7.5). 50 μl of this enzyme solution (10 μg His6-rhTG2) are added to the assay-solution containing the particular inhibitor concentration. It is incubated 5 min at 37° C. before measuring starts (λexc=313 nm and λem=418 nm, t=15 to 30 min).
The evaluation of the resulting enzyme activity is done using the slope of the straight line obtained by the increase in fluorescence.
To determine the non-inhibited enzyme activity, DMSO instead of inhibitor stock solution is used. IC50 values are determined by plotting the resulting enzyme activity against the logarithm of the inhibitor concentration. IC50 is defined as the concentration of inhibitor resulting in 50% of enzyme activity.

Structure (SMILES)	IC50 [nM]
CCOC(=O)/C=C/CC[C@H](NC(C)=O)C(=O)Nc1cccn(CC(=O)NC(C)C(C)C)c1=O (stereo partly drawn) [A55, (6S,E)-Ethyl 6-acetamido-7-(1-(2-(3-methylbutan-2-ylamino)-2-oxoethyl)-2-oxo-1,2-dihydropyridin-3-ylamino)-7-oxohept-2-enoate]	153
CCOC(=O)/C=C/CC[C@H](NC(=O)OCc1ccccc1)C(=O)Nc1ccc(C)n(CC(=O)NC(CC(=O)O)CC(C)C)c1=O (stereo partly drawn) [A5, 3-(2-(3-((S,E)-2-(Benzyloxycarbonylamino)-7-ethoxy-7-oxohept-5-enamido)-6-methyl-2-oxopyridin-1(2H)-yl)acetamido)-5-methylhexanoic acid]	130
CCOC(=O)/C=C/CC[C@H](NC(C)=O)C(=O)Nc1cccn(CC(=O)N[C@@H](CC(C)C)C(=O)OC)c1=O [A31, (S,E)-Ethyl 6-acetamido-7-(1-(2-((S)-1-methoxy-4-methyl-1-oxopentan-2-ylamino)-2-oxoethyl)-2-oxo-1,2-dihydropyridin-3-ylamino)-7-oxohept-2-enoate]	124
CCOC(=O)/C=C/CC[C@H](NS(=O)(=O)Cc1ccc(Cl)cc1)C(=O)Nc1cccn(CC(=O)NCCC(C)C)c1=O [A9, (S,E)-ethyl 6-((4-chlorophenyl)methylsulfonamido)-7-(1-(2-(isopentylamino)-2-oxoethyl)-2-oxo-1,2-dihydropyridin-3-ylamino)-7-oxohept-2-enoate]	708
CCOC(=O)/C=C/CC[C@H](NC(C)=O)C(=O)Nc1ccc(C)n(CC(=O)NCCC(C)C)c1=O [A4, (S,E)-Ethyl 6-acetamido-7-(1-(2-(isopentylamino)-2-oxoethyl)-6-methyl-2-oxo-1,2-dihydropyridin-3-ylamino)-7-oxohept-2-enoate]	119
CCOC(=O)/C=C/CC[C@H](NC(=O)CCC(=O)O)C(=O)Nc1cccn(CC(=O)NCCN2CCNC2=O)c1=O [A49, (S,E)-4-(7-Ethoxy-1,7-dioxo-1-(2-oxo-1-(2-oxo-2-(2-(2-oxoimidazolidin-1-yl)ethylamino)ethyl)-1,2-dihydropyridin-3-ylamino)hept-5-en-2-ylamino)-4-oxobutanoic acid]	1800
CCOC(=O)/C=C/CC[C@H](NC(=O)c1ccc(S(N)(=O)=O)cc1)C(=O)Nc1cccn(CC(=O)NCCC(C)C)c1=O [A14, (S,E)-Ethyl 7-(1-(2-(isopentylamino)-2-oxoethyl)-2-oxo-1,2-dihydropyridin-3-ylamino)-7-oxo-6-(4-sulfamoylbenzamido)hept-2-enoate]	137
CCOC(=O)/C=C/CC[C@H](NC(C)=O)C(=O)Nc1cccn(CC(=O)N[C@H](C(=O)OC)C(C)C)c1=O [A57, (S,E)-Ethyl 6-acetamido-7-(1-(2-((S)-1-methoxy-3-methyl-1-oxobutan-2-ylamino)-2-oxoethyl)-2-oxo-1,2-dihydropyridin-3-ylamino)-7-oxohept-2-enoate]	84
CCOC(=O)/C=C/CC[C@H](NC(=O)CCC(=O)O)C(=O)Nc1cccn(CC(=O)N2CCC(C(F)(F)F)CC2)c1=O [A45, (S,E)-4-(7-Ethoxy-1,7-dioxo-1-(2-oxo-1-(2-oxo-2-(4-(trifluoromethyl)piperidin-1-yl)ethyl)-1,2-dihydropyridin-3-ylamino)hept-5-en-2-ylamino)-4-oxobutanoic acid]	1230
CCC(CC)CNC(=O)Cn1cccc(NC(=O)[C@@H](CC/C=C/C(=O)OC)NC(=O)c2cncn2C)c1=O [A76, (R,E)-Methyl 7-(1-(2-(2-ethylbutylamino)-2-oxoethyl)-2-oxo-1,2-dihydropyridin-3-ylamino)-6-(1-methyl-1H-imidazole-5-carboxamido)-7-oxohept-2-enoate]	54700
CCOC(=O)/C=C/CC[C@H](NC(C)=O)C(=O)Nc1cccn(CC(=O)NCC2CCN(CC)CC2)c1=O [A48, (S,E)-Ethyl 6-acetamido-7-(1-(2-((1-ethylpiperidin-4-yl)methylamino)-2-oxoethyl)-2-oxo-1,2-dihydropyridin-3-ylamino)-7-oxohept-2-enoate]	1700
CCC(CC)CNC(=O)Cn1cccc(NC(=O)[C@H](CC/C=C/C(=O)OC)NC(=O)c2ccc3c(c2)C(=O)OC32c3ccc(N(C)C)cc3Oc3cc(N(C)C)ccc32)c1=O [A71, (S,E)-Methyl 6-(3′,6′-bis(dimethylamino)-3-oxo-3H-spiro[isobenzofuran-1,9′-xanthene]-5-ylcarboxamido)-7-(1-(2-(2-ethylbutylamino)-2-oxoethyl)-2-oxo-1,2-dihydropyridin-3-ylamino)-7-oxohept-2-enoate]	97
CCOC(=O)/C=C/CC[C@H](NC(=O)c1ccc2c(c1)OCCN2C)C(=O)Nc1cccn(CC(=O)NCCC(C)C)c1=O [A21, (S,E)-Ethyl 7-(1-(2-(isopentylamino)-2-oxoethyl)-2-oxo-1,2-dihydropyridin-3-ylamino)-6-(4-methyl-3,4-dihydro-2H-benzo[b][1,4]oxazine-7-carboxamido)-7-oxohept-2-enoate]	111
CCC(CC)CNC(=O)Cn1cccc(NC(=O)[C@H](CC/C=C/C(=O)OC)NC(=O)c2cccnc2)c1=O [A67, (S,E)-Methyl 7-(1-(2-(2-ethylbutylamino)-2-oxoethyl)-2-oxo-1,2-dihydropyridin-3-ylamino)-6-(nicotinamido)-7-oxohept-2-enoate]	55
CCOC(=O)/C=C/CC[C@H](NC(=O)CCNC(N)=O)C(=O)Nc1cccn(CC(=O)NCCC(C)C)c1=O [A56, (S,E)-Ethyl 7-(1-(2-(isopentylamino)-2-oxoethyl)-2-oxo-1,2-dihydropyridin-3-ylamino)-7-oxo-6-(3-ureidopropanamido)hept-2-enoate]	139
CCOC(=O)/C=C/CC[C@H](NC(=O)CCC(=O)O)C(=O)Nc1cccn(CC(=O)NCCc2cccs2)c1=O [A47, (S,E)-4-(7-Ethoxy-1,7-dioxo-1-(2-oxo-1-(2-oxo-2-(2-(thiophen-2-yl)ethylamino)ethyl)-1,2-dihydropyridin-3-ylamino)hept-5-en-2-ylamino)-4-oxobutanoic acid]	480
CCOC(=O)/C=C/CC[C@H](NC(=O)CCC(=O)O)C(=O)Nc1cccn(CC(=O)NCCC(C)(C)C)c1=O [A38, (S,E)-4-(1-(1-(2-(3,3-Dimethylbutylamino)-2-oxoethyl)-2-oxo-1,2-dihydropyridin-3-ylamino)-7-ethoxy-1,7-dioxohept-5-en-2-ylamino)-4-oxobutanoic acid]	175
CCOC(=O)/C=C/CC[C@H](NC(C)=O)C(=O)Nc1cccn(CC(=O)NCC(C)C)c1=O [A54, (S,E)-Ethyl 6-acetamido-7-(1-(2-(isobutylamino)-2-oxoethyl)-2-oxo-1,2-dihydropyridin-3-ylamino)-7-oxohept-2-enoate]	191
CCOC(=O)/C=C/CC[C@H](NC(=O)CCC(=O)O)C(=O)Nc1cccn(CC(=O)N[C@H](CC(C)C)C(=O)OC)c1=O [A34, 4-((S,E)-7-Ethoxy-1-(1-(2-((R)-1-methoxy-4-methyl-1-oxopentan-2-ylamino)-2-oxoethyl)-2-oxo-1,2-dihydropyridin-3-ylamino)-1,7-dioxohept-5-en-2-ylamino)-4-oxobutanoic acid]	640
CCC(CC)CNC(=O)Cn1cccc(NC(=O)[C@H](CC/C=C/C(=O)OC)NC(=O)C(C)N)c1=O (stereo partly drawn) [A68, (6S,E)-Methyl 6-(2-aminopropanamido)-7-(1-(2-(2-ethylbutylamino)-2-oxoethyl)-2-oxo-1,2-dihydropyridin-3-ylamino)-7-oxohept-2-enoate 2,2,2-trifluoroacetate]	53
